The values below come from BindingDB's records for doi:10.1021/jm049715t (Uppsala University, 2004).

The term Ki denotes a measure of affinity in units of concentration, obtained from inhibition or displacement. A high value points to lower affinity.

Molecules are shown by their SMILES.

In this assay the target is Type-2 angiotensin II receptor (Sus scrofa). The experiment in a line: Displacement of [125I]-Ang II from pig uterus membrane angiotensin II type 2 (AT2) receptor.
Take `CCCCOC(=O)NS(=O)(=O)c1sc(CC(C)C)cc1-c1ccc(CC#N)cc1` [butyl (5-isobutylthien-2-yl)sulfonylcarbamate derivative]: the affinity, expressed as Ki, was 70 nM.
The compound `CCCCOC(=O)NS(=O)(=O)c1sc(CC(C)C)cc1-c1ccc(Cn2c(CC)nc3ccccc32)cc1` [butyl (5-isobutylthien-2-yl)sulfonylcarbamate derivative] displayed a Ki of 3.2 nM.
For `CCCCOC(=O)NS(=O)(=O)c1sc(CC(C)C)cc1-c1ccc(Cn2ccnc2C)cc1` [butyl (5-isobutylthien-2-yl)sulfonylcarbamate derivative], the Ki amounted to 0.5 nM.
The figure for `CCCCOC(=O)NS(=O)(=O)c1sc(CC(C)C)cc1-c1ccc(Cn2cnc3ccccc32)cc1` [butyl (5-isobutylthien-2-yl)sulfonylcarbamate derivative] is 4 nM; for `CCCCOC(=O)NS(=O)(=O)c1sc(CC(C)C)cc1-c1ccc(Cn2cnc3cccnc32)cc1` [butyl (5-isobutylthien-2-yl)sulfonylcarbamate derivative] it is 7.1 nM.
